Measured values: article PMC10448176, “Arsenite oxidase in complex with antimonite and arsenite oxyanions: Insights into the catalytic mechanism” (The Journal of Biological Chemistry, 2023)
Where two headings read alike, the source gives them in different places.

Target: Af Aio (arsenite oxidase, AioA/AioB) (Alcaligenes faecalis, UniProt Q7SIF4)
Conditions: Mo active site of AioA, covalent

| Structure (SMILES) | X-ray crystallography, crystal soak (10 mM sodium arsenite soak of ferricyanide-oxidized crystals, mu-oxo bridged to Mo, two structures: As_d (8CH9, two oxo bridges) and As_c (8CFF, one bridge, possible)) | X-ray crystallography, crystal soak (10 mM potassium antimonyl tartrate soak of ferricyanide-oxidized crystals, one oxo bridge to Mo, Sb with four further oxo/hydroxo groups, turnover intermediate) |
| --- | --- | --- |
| O[As](O)O [As, arsenite] | the As ion is bound to Mo via one μ-oxo bridge (Mo-Ox-As) |  |
| [OH][Sb]([OH])[OH] [Sb, antimonite] |  | the Sb atom is sitting vertically to Mo and coordinated to the oxo ligand |
